Measurements published in patent US20160009693A1, “HERBICIDAL COMPOUNDS” (SYNGENTA LIMITED, priority 2013, published 2016).

Columns and labels:
Format in all cases: in vivo
Details in all cases: applied at 1000 g/h, evaluated after 13 days
[1] = system: Alopecurus myosuroides (ALOMY); assay: Herbicidal glasshouse test, pre-emergence, ALOMY
[2] = system: Setaria faberi (SETFA); assay: Herbicidal glasshouse test, pre-emergence, SETFA
[3] = system: Echinochloa crus-galli (ECHCG); assay: Herbicidal glasshouse test, pre-emergence, ECHCG
In short: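 In this pre-emergence glasshouse test, ECHCG seeds sown in pots of standard soil were sprayed one day after sowing with the test material in acetone/water (50:50) containing 0.5% Tween 20. Plants were kept at 24/16° C., 14 hours light, 65% humidity, and watered twice daily. Percentage damage was rated after 13 days on a 1–5 scale.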

[4] = system: Solanum nigrum (SOLNI); assay: Herbicidal glasshouse test, pre-emergence, SOLNI
In short: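 This pre-emergence glasshouse herbicide test used Solanum nigrum sown in standard soil. One day after sowing, pots were sprayed with the compound in acetone/water (50:50) with 0.5% Tween 20. They were then grown at 24/16° C., with 14 hours light and 65% humidity, and watered twice daily. Percentage damage was scored after 13 days on a five point scale, where 5=80-100% and 1=0-19%.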

[5] = system: Amaranthus retoflexus (AMARE); assay: Herbicidal glasshouse test, pre-emergence, AMARE
In short: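 This pre-emergence glasshouse herbicide test used Amaranthus retoflexus sown in standard soil. After one day of cultivation, an aqueous spray made from the technical ingredient in 50:50 acetone/water with 0.5% Tween 20 was applied. Pots stayed at 24/16° C., 14 hours light, 65% humidity, with twice-daily watering. Damage was rated on a five point scale (1=0-19% up to 5=80-100%).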

[6] = system: Ipomoea hederacea (IPOHE); assay: Herbicidal glasshouse test, pre-emergence, IPOHE
[7] = system: Alopecurus myosuroides (ALOMY); assay: Herbicidal glasshouse test, post-emergence, ALOMY
[8] = system: Setaria faberi (SETFA); assay: Herbicidal glasshouse test, post-emergence, SETFA
In short: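 This post-emergence glasshouse herbicide test used potted Setaria faberi. Plants were cultivated for 8 days under controlled conditions (24/16° C. day/night, 14 hours light, 65% humidity) and then treated with an aqueous spray made from an acetone/water (50:50) solution containing 0.5% Tween 20. After 13 days of further growth with twice-daily watering, damage was rated on a five point scale (5=80-100%; 1=0-19%).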

[9] = system: Echinochloa crus-galli (ECHCG); assay: Herbicidal glasshouse test, post-emergence, ECHCG
In short: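 In this post-emergence glasshouse test, barnyard grass (ECHCG) was cultivated for 8 days under controlled conditions (24/16° C. day/night, 14 hours light, 65% humidity). It was then sprayed with an aqueous solution of the technical compound in acetone / water (50:50) with 0.5% Tween 20. Plants were kept under the same conditions and watered twice daily. After 13 days, percentage damage was rated on a five point scale (5=80-100%; 1=0-19%).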

[10] = system: Solanum nigrum (SOLNI); assay: Herbicidal glasshouse test, post-emergence, SOLNI
[11] = system: Amaranthus retoflexus (AMARE); assay: Herbicidal glasshouse test, post-emergence, AMARE
In short: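 This post-emergence glasshouse test used AMARE plants raised in standard soil for 8 days under controlled conditions (24/16° C. day/night, 14 hours light, 65% humidity). Foliage was sprayed with formulated compound in acetone/water (50:50) containing 0.5% Tween 20. Plants were then watered twice daily, and after 13 days percentage damage was rated on a five point scale.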

[12] = system: Ipomoea hederacea (IPOHE); assay: Herbicidal glasshouse test, post-emergence, IPOHE

SMILES | PRE Application ALOMY, percentage damage (five point scale) [1] | PRE Application SETFA, percentage damage (five point scale) [2] | PRE Application ECHCG, percentage damage (five point scale) [3] | PRE Application SOLNI, percentage damage (five point scale) [4] | PRE Application AMARE, percentage damage (five point scale) [5] | PRE Application IPOHE, percentage damage (five point scale) [6] | POST Application ALOMY, percentage damage (five point scale) [7] | POST Application SETFA, percentage damage (five point scale) [8] | POST Application ECHCG, percentage damage (five point scale) [9] | POST Application SOLNI, percentage damage (five point scale) [10] | POST Application AMARE, percentage damage (five point scale) [11] | POST Application IPOHE, percentage damage (five point scale) [12]
Cn1nnnc1NC(=O)c1nn(C)c(=O)n(Cc2ccc(F)cc2Cl)c1=O [Compound 1.069] | 5 (5=80-100%) | 2 (2=20-39%) | 5 (5=80-100%) | 5 (5=80-100%) | 5 (5=80-100%) | 5 (5=80-100%) | 5 (5=80-100%) | 2 (2=20-39%) | 5 (5=80-100%) | 5 (5=80-100%) | 5 (5=80-100%) | 5 (5=80-100%)
COc1cc(Cn2c(=O)c(C(=O)Nc3nnnn3C)nn(C)c2=O)cc(Cl)n1 [Compound 1.070] | 5 (5=80-100%) | 1 (1=0-19%) | 5 (5=80-100%) | 5 (5=80-100%) | 5 (5=80-100%) | 5 (5=80-100%) | 5 (5=80-100%) | 2 (2=20-39%) | 5 (5=80-100%) | 5 (5=80-100%) | 5 (5=80-100%) | 5 (5=80-100%)
Cn1nnnc1NC(=O)c1nn(C)c(=O)n(Cc2ccc([N+](=O)[O-])cc2)c1=O [Compound 1.071] | 5 (5=80-100%) | 2 (2=20-39%) | 5 (5=80-100%) | 5 (5=80-100%) | 5 (5=80-100%) | 5 (5=80-100%) | 4 (4=60-79%) | 1 (1=0-19%) | 4 (4=60-79%) | 5 (5=80-100%) | 5 (5=80-100%) | 2 (2=20-39%)
Cn1nnnc1NC(=O)c1nn(C)c(=O)n(Cc2c(Cl)cccc2Cl)c1=O [Compound 1.072] | 5 (5=80-100%) | 2 (2=20-39%) | 5 (5=80-100%) | 5 (5=80-100%) | 5 (5=80-100%) | 3 (3=40-59%) | 4 (4=60-79%) | 4 (4=60-79%) | 4 (4=60-79%) | 5 (5=80-100%) | 5 (5=80-100%) | 4 (4=60-79%)
Cn1nnnc1NC(=O)c1nn(C)c(=O)n(Cc2ccc(F)cc2)c1=O [Compound 1.073] | 5 (5=80-100%) | 1 (1=0-19%) | 5 (5=80-100%) | 5 (5=80-100%) | 5 (5=80-100%) | 5 (5=80-100%) | 2 (2=20-39%) | 2 (2=20-39%) | 3 (3=40-59%) | 5 (5=80-100%) | 5 (5=80-100%) | 5 (5=80-100%)
Cc1cc(C)cc(Cn2c(=O)c(C(=O)Nc3nnnn3C)nn(C)c2=O)c1 [Compound 1.074] | 5 (5=80-100%) | 1 (1=0-19%) | 4 (4=60-79%) | 5 (5=80-100%) | 5 (5=80-100%) | 3 (3=40-59%) | 4 (4=60-79%) | 1 (1=0-19%) | 3 (3=40-59%) | 5 (5=80-100%) | 5 (5=80-100%) | 2 (2=20-39%)
Cc1cc(Cn2c(=O)c(C(=O)Nc3nnnn3C)nn(C)c2=O)ccc1F [Compound 1.075] | 5 (5=80-100%) | 1 (1=0-19%) | 5 (5=80-100%) | 5 (5=80-100%) | 5 (5=80-100%) | 5 (5=80-100%) | 2 (2=20-39%) | 1 (1=0-19%) | 3 (3=40-59%) | 5 (5=80-100%) | 5 (5=80-100%) | 5 (5=80-100%)
Cn1nnnc1NC(=O)c1nn(C)c(=O)n(Cc2cccc(F)c2C(F)(F)F)c1=O [Compound 1.076] | 5 (5=80-100%) | 5 (5=80-100%) | 5 (5=80-100%) | 5 (5=80-100%) | 5 (5=80-100%) | 5 (5=80-100%) | 5 (5=80-100%) | 5 (5=80-100%) | 5 (5=80-100%) | 5 (5=80-100%) | 5 (5=80-100%) | 5 (5=80-100%)
COc1ccc(F)c(Cn2c(=O)c(C(=O)Nc3nnnn3C)nn(C)c2=O)c1Cl [Compound 1.077] | 4 (4=60-79%) | 2 (2=20-39%) | 4 (4=60-79%) | 4 (4=60-79%) | 3 (3=40-59%) | 4 (4=60-79%) | 4 (4=60-79%) | 2 (2=20-39%) | 4 (4=60-79%) | 4 (4=60-79%) | 3 (3=40-59%) | 4 (4=60-79%)
Cc1cc(Cn2c(=O)c(C(=O)Nc3nnnn3C)nn(C)c2=O)cc(C)c1F [Compound 1.078] | 2 (2=20-39%) | 1 (1=0-19%) | 2 (2=20-39%) | 5 (5=80-100%) | 5 (5=80-100%) | 2 (2=20-39%) | 2 (2=20-39%) | 2 (2=20-39%) | 4 (4=60-79%) | 5 (5=80-100%) | 5 (5=80-100%) | 5 (5=80-100%)
